Measurements as given in patent US6878536B2, “Phosphoriboxyl-pyrophosphate synthetase polypeptide” (BASF, priority 1997, dated 2005).

Test system: glutamine-PRPP amidotransferase from Ashbya gossypii
Assay: Activity of glutamine-PRPP amidotransferase (Messenger and Zalkin method)
Format: biochemical
Conditions: wild-type enzyme, FIG. 1
Excerpt: The glutamine-PRPP amidotransferase from Ashbya gossypii is likewise inhibited by AMP or GMP (see Figure). The activity of glutamine-phosphoribosyl-pyrophosphate amidotransferase from Ashbya gossypii can be measured as described in Messenger and Zalkin (1979) J. Biol. Chem. 254, pages 3382-3392.
This can be shown, for example, by expressing the enzymes in Ashbya gossypii (see Example 11).
Measurement of the activity of Gln-PRPP amidotransferase from A. gossypii and of modified forms of the enzyme as a function of the concentration of adenosine 5′-monophosphate (AMP) and guanosine 5′-monophosphate (GMP).

Structure (SMILES)	inhibition of glutamine-PRPP amidotransferase from Ashbya gossypii
Nc1ncnc2c1ncn2[C@@H]1O[C@H](COP(=O)(O)O)[C@@H](O)[C@H]1O [AMP, adenosine 5′-monophosphate]	inhibited
Nc1nc2c(ncn2[C@@H]2O[C@H](COP(=O)(O)O)[C@@H](O)[C@H]2O)c(=O)[nH]1 [GMP, guanosine 5′-monophosphate]	inhibited
